We go through six molecules from US20260207755A1, “TARGETED PROTEIN DEGRADERS OF INDOLEAMINE 2,3-DIOXYGENASE 1 (IDO1)” (Northwestern University, priority 2022, published 2026).

For assay [1], the target named is T1, 6×His tagged recombinant IDO1 protein (Homo sapiens, UniProt P14902).
T1 construct: purchased Active Motif 81031
Description: BLI binary binding of IDO1-PROTAC to immobilized IDO1. The note with it: IDO1 on Ni-NTA sensors, PBS+0.5% DMSO pH 7.4, 30° C. Here is the method:
(§1) FIGS. 13A-13C show mechanistic understanding of IDO1-PROTAC-induced IDO1 degradation. […] Data sets fitted globally with a 1:1 kinetic model. FIG. 13B is BLI sensorgrams showing association and dissociation of compound NU227164 to CRBN protein pre-immobilized on AR2G sensors. Binding experiments and data fitting were performed as described above. FIG. 13C is BLI sensorgrams for the IDO1-NU227164-CRBN ternary complex. IDO1 protein was loaded onto NiNTA biosensors. IDO1 was pre-immobilized on NI NTA sensors, and binding of compound NU227164 preincubated with CRBN was monitored in the association step; next, the sensors were moved into reaction buffer in order monitor dissociation. As indicated in the legend, each trace corresponds to a different concentration of NU227164. Data sets fitted globally with a 1:1 kinetic model. No binding was detected between CRBN and IDO1 in the absence of NU227164 (trace “CRBN only”).
(§2) FIGS. 14A-14C illustrate mechanistic understanding of DO1-PROTAC-induced IDO1 degradation. […] The equilibrium dissociation constant (Kd) was obtained by fitting the steady state data (Req as a function of compound concentration) with a 1:1 binding model. FIG. 14B is BLI sensorgrams showing association and dissociation of compound NU227168 to CRBN protein pre-immobilized on AR2G sensors. Binding experiments and data fitting were performed as described above. FIG. 14C is BLI sensorgrams for the IDO1-NU227168-CRBN ternary complex. IDO1 protein was loaded onto NiNTA biosensors. IDO1 was pre-immobilized on NI NTA sensors, and binding of compound NU227168 preincubated with CRBN was monitored in the association step; next, the sensors were moved into reaction buffer in order monitor dissociation. As indicated in the legend, each trace corresponds to a different concentration of NU227168. Data sets fitted globally with a 1:1 kinetic model. No binding was detected between CRBN and IDO1 in the absence of NU227168 (trace “CRBN only”).
(§3) FIGS. 15A-15C show mechanistic understanding of IDO1-PROTAC-induced IDO1 degradation. […] The equilibrium dissociation constant (Kd) was obtained by fitting the steady state data (Req as a function of compound concentration) with a 1:1 binding model. FIG. 15B is BLI sensorgrams showing association and dissociation of compound NU227191 to CRBN protein pre-immobilized on AR2G sensors. Binding experiments and data fitting were performed as described above. FIG. 15C is BLI sensorgrams for the IDO1-NU227191-CRBN ternary complex. IDO1 protein was loaded onto NiNTA biosensors. IDO1 was pre-immobilized on NI NTA sensors, and binding of compound NU227191 preincubated with CRBN was monitored in the association step; next, the sensors were moved into reaction buffer in order monitor dissociation. As indicated in the legend, each trace corresponds to a different concentration of NU227191. Data sets fitted globally with a 1:1 kinetic model. No binding was detected between CRBN and IDO1 in the absence of NU227191 (trace “CRBN only”).
(§4) FIGS. 16A-16C show mechanistic understanding of IDO1-PROTAC-induced IDO1 degradation. […] The equilibrium dissociation constant (Kd) was obtained by fitting the steady state data (Req as a function of compound concentration) with a 1:1 binding model. FIG. 16B is BLI sensorgrams showing association and dissociation of compound NU227199 to CRBN protein pre-immobilized on AR2G sensors. Binding experiments and data fitting were performed as described above. FIG. 16C is BLI sensorgrams for the IDO1-NU227199-CRBN ternary complex. IDO1 protein was loaded onto NiNTA biosensors. IDO1 was pre-immobilized on NI NTA sensors, and binding of compound NU227199 preincubated with CRBN was monitored in the association step; next, the sensors were moved into reaction buffer in order monitor dissociation. As indicated in the legend, each trace corresponds to a different concentration of NU227199. Data sets fitted globally with a 1:1 kinetic model. […]

Another assay concerns the target T2, cereblon (CRBN) protein (Homo sapiens, UniProt Q96SW2).
T2 construct: purchased Sino Biological
Description: BLI binary binding of IDO1-PROTAC to immobilized CRBN. The note with it: CRBN amine coupled to AR2G sensors. The procedure: as §1, §2, §3, §4

The target of assay [2] is T3, IDO1-PROTAC-CRBN ternary complex (Homo sapiens, UniProt P14902+Q96SW2).
T3 construct: purchased Active Motif (IDO1); Sino Biological (CRBN) 81031 (IDO1); none given for CRBN
As to the kind of experiment: BLI IDO1-PROTAC-CRBN ternary complex. The class given is binding. Conditions: IDO1 on NiNTA sensors, PROTAC pre-incubated with 25 molar excess of CRBN, 1:1 kinetic model. The procedure: as §1, §2, §3, §4

In the next assay the target is T4, IDO1 in U87 cells (Homo sapiens, UniProt P14902).
T4 construct: endogenous in cells; host or cells: U87 cells, IDO1 induced with IFNγ
Description: PROTAC-induced IDO1 degradation in U87 cells by Western blot. Conditions: 24 h. The class given is cell-based. The procedure:
(§5) FIGS. 20A-20E show biological activity of compounds NU227326 and NU227327.
(§6) FIGS. 22A-22D show determination of IDO1 degrading potency of NU227326.
(§7) Protein samples were prepared by lysing the cells in RIPA buffer (Sigma-Aldrich, Cat #R0278) supplemented with protease and phosphatase inhibitors on ice for 30 min. Cell lysates were clarified by centrifugation at 16,000×g for 15 min at 4° C. Equal amounts of proteins as quantified by bicinchoninic acid assay (Pierce) were separated on an SDS-polyacrylamide gel electrophoresis and proteins were electrophoretically transferred onto a polyvinylidene fluoride (PVDF) membrane using a Trans-Blot Turbo Transfer System (Bio-Rad, Hercules, CA, USA). The blotted membranes were blocked for 1 h at room temperature in blocking buffer containing 5% (w/v) nonfat dry milk in Tris-buffered saline and 0.1% Tween 20 (TBS-T) followed by incubating the membranes overnight at 4° C. with primary antibodies against a target protein diluted at a standardized concentration in blocking buffer. […] The protein bands were detected using an enhanced chemiluminescence reagent (SuperSignal West Femto Maximum Sensitivity substrate) and blots were visualized with Bio-Rad ImageLab software on a Bio-Rad […] MP imaging system. […]

The next assay has as its system kynurenine in U87 cells. As to the kind of experiment: Kynurenine assay (Ehrlich's reagent) in U87 cells. The class given is cell-based. The note with it: indicated doses of compound. The procedure: as §5
Kynurenine levels in cell culture supernatants were measured using Erhlich's reagent. Briefly, cell culture supernatants were incubated with a 10% final concentration of trichloroacetic acid in Eppendorf tubes for 20 min at 60° C. to release kynurenine from cells and to precipitate proteins. After 20 minutes, samples were centrifuged for 20 min at 2500×g and supernatants were mixed with 20 mg/mL 4-dimethylamino benzaldehyde in acetic acid (Sigma Aldrich) at a 1:1 ratio and absorbance was measured at 480 nm using a plate reader.

The target in another assay is T5, IDO1 in GBM43 cells (Homo sapiens, UniProt P14902).
T5 construct: endogenous in cells; host or cells: GBM43 cells
Description: PROTAC-induced IDO1 degradation in GBM43 cells by Western blot. The class given is cell-based. Conditions: 24 h. Here is the method:
as §5, §6, §7

Where [3] appears, read: levels of IDO1 quantified from Western blot.

T5 sequence (P14902 whole entry): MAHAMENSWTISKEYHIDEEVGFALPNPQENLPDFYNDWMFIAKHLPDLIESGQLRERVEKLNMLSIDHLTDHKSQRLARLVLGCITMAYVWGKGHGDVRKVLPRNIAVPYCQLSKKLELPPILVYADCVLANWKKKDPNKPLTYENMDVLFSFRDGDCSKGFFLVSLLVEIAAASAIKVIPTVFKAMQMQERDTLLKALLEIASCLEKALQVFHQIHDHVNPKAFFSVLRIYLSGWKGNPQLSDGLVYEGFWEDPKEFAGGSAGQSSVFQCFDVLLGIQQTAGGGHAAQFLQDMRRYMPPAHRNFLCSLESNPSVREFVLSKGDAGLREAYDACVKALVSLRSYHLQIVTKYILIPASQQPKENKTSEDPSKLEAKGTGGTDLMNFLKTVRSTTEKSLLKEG
T1 sequence (P14902 whole entry): as above
T3 sequence (P14902 whole entry): as above
T3 sequence (Q96SW2 whole entry): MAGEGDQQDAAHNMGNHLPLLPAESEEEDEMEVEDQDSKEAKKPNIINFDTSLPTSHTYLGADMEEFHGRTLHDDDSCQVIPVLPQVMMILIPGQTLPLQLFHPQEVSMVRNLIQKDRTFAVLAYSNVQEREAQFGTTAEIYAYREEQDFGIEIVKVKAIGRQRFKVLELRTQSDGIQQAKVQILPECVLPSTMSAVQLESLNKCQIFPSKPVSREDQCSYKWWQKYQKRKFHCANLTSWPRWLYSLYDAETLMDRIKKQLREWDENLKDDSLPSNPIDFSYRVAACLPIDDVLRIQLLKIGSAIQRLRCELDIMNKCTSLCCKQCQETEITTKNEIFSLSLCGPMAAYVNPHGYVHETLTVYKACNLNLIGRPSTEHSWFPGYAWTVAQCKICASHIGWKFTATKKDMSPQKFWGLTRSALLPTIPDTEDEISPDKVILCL
T2 sequence (Q96SW2 whole entry): as above
T4 sequence (P14902 whole entry): as the sequence (P14902 whole entry) above

With `C[C@@H](C(=O)Nc1ccc(Cl)c(OC2CCN(C(=O)C3CCN(C[C@H]4CC[C@H](Nc5ccc6c(c5)C(=O)N(C5CCC(=O)NC5=O)C6=O)CC4)CC3)CC2)c1)[C@H]1CC[C@@H](c2ccnc3ccc(F)cc32)CC1` (stereo partly drawn) [NU227199, (2R)-N-(4-chloro-3-((1-(1-(((1r,4r)-4-((2-(2,6-dioxopiperidin-3-yl)-1,3-dioxoisoindolin-5-yl)amino)cyclohexyl)methyl)piperidine-4-carbonyl)piperidin-4-yl)oxy)phenyl)-2-((1s,4S)-4-(6-fluoroquinolin-4-yl)cyclohexyl)propanamide], the values for the Kd (in assay [1]; at cereblon (CRBN) protein; in assay [2]) were 2100 nM, 1600 nM and 689 nM, respectively.
In the case of “(2R)-N-(4-((1-(1-(2-((2-(2,6-dioxopiperidin-3-yl)-1,3-dioxoisoindolin-5-yl)amino)ethoxy)ethyl)piperidine-4-carbonyl)piperidin-4-yl)oxy)phenyl)-2-((1s,4S)-4-(6-fluoroquinolin-4-yl)cyclohexyl)propanamide [NU227191]”, the dissociation constant Kd in assay [1] came out at 12000 nM; on cereblon (CRBN) protein, 5100 nM. The “IDO1-PROTAC-CRBN Ternary Kd” value in assay [2] is “could not obtain”.
For the molecule `C[C@@H](C(=O)Nc1cccc(OC2CCN(C(=O)CN3CCC(N4CCN(c5ccc6c(c5)C(=O)N(C5CCC(=O)NC5=O)C6=O)CC4)CC3)CC2)c1)[C@H]1CC[C@@H](c2ccnc3ccc(F)cc32)CC1` (stereo partly drawn) [NU227326, (2R)-N-(3-((1-(2-(4-(4-(2-(2,6-dioxopiperidin-3-yl)-1,3-dioxoisoindolin-5-yl)piperazin-1-yl)piperidin-1l-yl)acetyl)piperidin-4-yl)oxy)phenyl)-2-((1s,4S)-4-(6-fluoroquinolin-4-yl)cyclohexyl)propanamide], the “IDO1 degradation by Western blotting” value at IDO1 in U87 cells (indicated concentrations) is “dose-dependent IDO1 degradation”; on IDO1 in GBM43 cells (indicated concentrations), “potent and dose-dependent degradation of IDO1”. The results for the DC50 at IDO1 in U87 cells (setting [3]) and at IDO1 in GBM43 cells (setting [3]) were 10.4 nM and 20.3 nM, respectively. Further, the Kd came out at 140 nM in assay [1], 380 nM on cereblon (CRBN) protein and 321 nM in assay [2]. The concentration of kynurenine result in the assay with kynurenine in U87 cells is given as “strong reduction of cellular kynurenine”.
`C[C@@H](C(=O)Nc1cccc(OC2CCN(C(=O)CN3CCC(CN4CCN(c5ccc6c(c5)C(=O)N(C5CCC(=O)NC5=O)C6=O)CC4)CC3)CC2)c1)[C@H]1CC[C@@H](c2ccnc3ccc(F)cc32)CC1` (stereo partly drawn) [NU227327, (2R)-N-(3-((1-(2-(4-((4-(2-(2,6-dioxopiperidin-3-yl)-1,3-dioxoisoindolin-5-yl)piperazin-1-yl)methyl)piperidin-1-yl)acetyl)piperidin-4-yl)oxy)phenyl)-2-((1s,4S)-4-(6-fluoroquinolin-4-yl)cyclohexyl)propanamide]: the Kd amounted to 370 nM in assay [1], 520 nM on cereblon (CRBN) protein and 997 nM in assay [2]. Besides, in the assay with kynurenine in U87 cells, the concentration of kynurenine entry is “strong reduction of cellular kynurenine”.
Turning to `C[C@@H](C(=O)Nc1ccc(Cl)c(OC2CCN(C(=O)CN3CCC(N4CCN(c5ccc6c(c5)C(=O)N(C5CCC(=O)NC5=O)C6=O)CC4)CC3)CC2)c1)[C@H]1CC[C@@H](c2ccnc3ccc(F)cc32)CC1` (stereo partly drawn) [NU227168, (2R)-N-(4-chloro-3-((1-(2-(4-(4-(2-(2,6-dioxopiperidin-3-yl)-1,3-dioxoisoindolin-5-yl)piperazin-1-yl)piperidin-1-yl)acetyl)piperidin-4-yl)oxy)phenyl)-2-((1s,4S)-4-(6-fluoroquinolin-4-yl)cyclohexyl)propanamide], the Kd came out at 340 nM in assay [1], 190 nM on cereblon (CRBN) protein and 87 nM in assay [2].
For `C[C@@H](C(=O)Nc1ccc(Cl)c(OC2CCN(C(=O)CN3CCC(CN4CCN(c5ccc6c(c5)C(=O)N(C5CCC(=O)NC5=O)C6=O)CC4)CC3)CC2)c1)[C@H]1CC[C@@H](c2ccnc3ccc(F)cc32)CC1` (stereo partly drawn) [NU227164, (2R)-N-(4-chloro-3-((1-(2-(4-((4-(2-(2,6-dioxopiperidin-3-yl)-1,3-dioxoisoindolin-5-yl)piperazin-1-yl)methyl)piperidin-1-yl)acetyl)piperidin-4-yl)oxy)phenyl)-2-((1s,4,S)-4-(6-fluoroquinolin-4-yl)cyclohexyl)propanamide] the same measures were 430 nM, 310 nM and 128 nM.
